Data: US6927210B1, “Ectoparasiticidal aqueous suspension formulations of spinosyns” (Eli Lilly and Company, priority 1999, dated 2005)

Experiment: Solution state of spinosad in dip water
Type: physicochemical
Conditions: 5 and 50 ppm
Description: Two trials were conducted to determine the degree to which spinosad is removed (stripped) from dip water after dipping sheep. In the trials, spinosad dip tank concentrations of 50 ppm and 5 ppm were prepared from an aqueous suspension containing 25 g/L of spinosad. Both trials involved dipping 10 Dorset-cross shorn sheep in 70 gallons (265 liters) of treated water. Each animal was dipped for 30 seconds duration, with the head immersed twice. Samples of dip water were taken for HPLC analysis, initially and after each sheep was dipped. The pH of the water was also determined after each animal was dipped. A dip tank concentration of 5 ppm of spinosad should provide lice control on sheep.

spinosad
Solution state in dip water (in words): in true solution at 5 and 50 ppm concentration
